According to PubChem BioAssay AID1996:
Converted amounts (≈) assume the structure as drawn.

Details: buffer; pH 7.4; 200.0 µM

solubility kinetic [µg/mL] | SMILES
3.4 (≈ 15.3 µM) | Cc1ccc2c(C(=O)CCl)c(C)[nH]c2c1
1.3 (≈ 4.88 µM) | Cc1ccc2cc3cc(C(=O)NC4CC4)oc3nc2c1
> 29.7 | CC(Nc1ccccc1)c1ccncc1 (centres undefined)
2.5 (≈ 8.19 µM) | CC(=O)c1c(C)[nH]c(C(=O)CSc2ccc(F)cc2)c1C
0.3 (≈ 1.18 µM) | c1ccc(-c2csc(Nc3ccccn3)n2)cc1
> 54.7 | CC(=O)Oc1ccc(C2(C)CC(C)(C)NC(=S)N2C)c(OC(C)=O)c1 (centres undefined)
2.5 (≈ 8.41 µM) | c1ccc(Nc2nc(-c3ccccc3)nc3ccccc23)cc1
> 23 | Nc1ccc(C(=O)O)c(O)c1
> 40.1 | CCOC(=O)c1cnc(SC)nc1N1CCCC1
38.7 (≈ 117 µM) | COc1ccc(CCC(C)NCc2cc(OC)cc(OC)c2)cc1 (centres undefined)
> 55.2 | O=C(O)CCCC(=O)Nc1ccc(Oc2cccc(C(F)(F)F)c2)nc1
< 0.2 | Cc1cccc(Nc2nc(-c3ccc(F)cc3)cs2)n1
41.2 (≈ 111 µM) | Cc1ccc(CN2CCN(Cc3ccc(OC(C)C)cc3)CC2CCO)o1 (centres undefined)
26 (≈ 122 µM) | N#Cc1cnc(Sc2ccccc2)nc1
> 49.8 | O=C(c1cc(Cl)ccc1OCc1ccccc1)N1CCOCC1
44.7 (≈ 145 µM) | CC12CCC(=O)N1C(C(=O)NCc1ccccc1F)CS2 (centres undefined)
9.1 (≈ 29 µM) | Cc1nc2ccc([N+](=O)[O-])cc2c(=O)n1Cc1cccc(F)c1
7 (≈ 22.1 µM) | COc1ccc(C(=O)NC(=O)COC(=O)c2ccc(C)o2)cc1
3.7 (≈ 10.9 µM) | CC(OC(=O)c1cccc([N+](=O)[O-])c1)C(=O)N1CCc2ccccc21 (centres undefined)
> 54.4 | O=C(O)/C=C/C(=O)Nc1ccc(N2CCOCC2)nc1N1CCOCC1
38 (≈ 83.4 µM) | CCC1(c2ccccc2)NC(=O)N(CC(=O)N(c2ccccc2)C2CCS(=O)(=O)C2)C1=O (centres undefined)
> 43.2 | O=S(=O)(NC1=NCCCCC1)c1ccc(F)cc1F
> 31.5 | Cc1ccsc1/C=N/N1CCOCC1
42.7 (≈ 117 µM) | CCN(C(=O)Cc1c(C(=O)O)n(CC)c2ccccc12)c1ccccc1C

solubility kinetic [µg/mL] | SMILES
1.4 (≈ 3.66 µM) | CCCCCC1CC(CC(=O)NC(=S)Nc2ccccc2Cl)C(=O)O1 (centres undefined)
24.2 (≈ 85.7 µM) | Cc1cc(C(=O)NC2CCCCCC2)c2ccccc2n1
< 0.6 | CCOc1ccccc1C1CC(=O)Nc2cc(C)c(C)cc21 (centres undefined)
> 42.5 | CCOC(=O)c1cn2nc(Oc3ccccc3)ccc2n1
6 (≈ 15 µM) | CCOC(=O)c1c(C)[nH]c(C)c1C(=O)COC(=O)/C=C/c1ccccc1[N+](=O)[O-]
26.5 (≈ 140 µM) | Cc1cc(=S)c2cccc(C)c2[nH]1
37.7 (≈ 90.1 µM) | CC(=O)Nc1ccc(S(=O)(=O)N[C@@H](C)C(=O)OCC(=O)c2ccc(C)cc2)cc1
> 46.1 | Cc1nnc(SCC(=O)Nc2ccc([N+](=O)[O-])cc2)n1C
0.5 (≈ 2.01 µM) | CCn1c(O)c(C=Nc2ccccc2)sc1=O
28.9 (≈ 95.9 µM) | COC(=O)c1cc(C(=O)OC)n(Cc2ccc(C)cc2)c1C
> 54.8 | Cc1nc(SCC(=O)N(C)C2CCS(=O)(=O)C2)c2ccccc2n1 (centres undefined)
> 46.6 | CCC(=O)OCC(=O)Nc1ncc(C(F)(F)F)cc1Cl
1.9 (≈ 5.5 µM) | Cc1ccc(NC(=O)c2cccnc2C(=O)Nc2ccc(C)cc2)cc1
5.1 (≈ 15.6 µM) | CCOc1ccc(NC(=O)CN2C(=O)COc3ccccc32)cc1
7.6 (≈ 27.3 µM) | Cn1cc(-c2cccc(C(F)(F)F)c2)cc(C#N)c1=O
16.1 (≈ 53.1 µM) | S=C1NCN(C2CCCCC2)CN1CCc1ccccc1
0.4 (≈ 1.24 µM) | COc1ccc(Nc2nccc(-c3ccc([N+](=O)[O-])cc3)n2)cc1
> 47.6 | CCNC(=O)c1ccccc1NC(=O)C1CC(=O)N(C(C)C)C1 (centres undefined)
1.2 (≈ 4.18 µM) | Cc1ccn2cc(-c3ccc(Br)cc3)nc2c1
53.3 (≈ 142 µM) | CCOc1ccc(S(=O)(=O)Nc2ccc(C(=O)N3CCCC3)cc2)cc1
> 51.2 | C=CCNc1nc(S(=O)Cc2ccc(C)cc2)nc2c1CCCC2 (centres undefined)
40.6 (≈ 135 µM) | COc1cc(OC)cc(C(=O)O/N=C(\N)c2ccccn2)c1
9.2 (≈ 21.3 µM) | CN(CC(=O)Nc1cccc(F)c1)C(=O)c1ccc(OCc2cn3ccccc3n2)cc1
2.6 (≈ 7.84 µM) | Cc1onc(-c2c(F)cccc2Cl)c1C(=O)c1ccccc1O

solubility kinetic [µg/mL] | SMILES
0.6 (≈ 1.72 µM) | COc1ccc2c(c1)CCC(C)N2C(=O)C(=O)c1c[nH]c2ccccc12 (centres undefined)
> 47.5 | O=C(Nc1sc2c(c1C(=O)O)CCCCC2)c1cccnc1
> 47.2 | O=C(c1cccc(F)c1)N1CCC2(CC1)NCCc1[nH]cnc12
> 52 | CCN(CC(=O)NCc1cccs1)C(=O)CCOc1ccccc1
> 22.1 | CN[C@H](CC(=O)O)C(=O)O
4.7 (≈ 15.8 µM) | Cc1csc(NC(=O)c2cncc(Br)c2)n1
12.3 (≈ 38.7 µM) | Clc1cccc(C2CCN(Cc3nc(CC4CC4)no3)C2)c1 (centres undefined)
41.3 (≈ 141 µM) | COc1ccc(C(O)Cn2ccsc2=NC(C)=O)cc1 (centres undefined)
> 47.2 | C=CCNC(=O)C1CCN(S(=O)(=O)c2cccs2)CC1
33.7 (≈ 80.9 µM) | CN(CC(=O)Nc1cccc(F)c1)C(=O)c1ccc(N2CCOCC2)c([N+](=O)[O-])c1
57.4 (≈ 147 µM) | O=C(Nc1ccc(C(=O)c2ccc(C(=O)O)c(C(=O)O)c2)cc1)c1ccccc1
48.9 (≈ 141 µM) | COc1ccc(C2CC(=O)N(c3ccccc3)C3=C2C(=O)CCC3)cc1 (centres undefined)
> 48.5 | CCOC(=O)/C(N=Nc1ccc(C(=O)O)cc1[N+](=O)[O-])=C(\C)O
> 43.3 | CC(C)C(C(=O)Nc1ccncc1)c1ccc(Cl)cc1 (centres undefined)
5.4 (≈ 14.4 µM) | Cc1ccc(NC(=O)c2cnccn2)cc1S(=O)(=O)N1CCCCCC1
23.1 (≈ 88 µM) | CC(CCN1CCN(CCO)CC1)c1ccccc1 (centres undefined)
50.9 (≈ 132 µM) | COc1ccc(N(C(=O)c2ccncc2)S(=O)(=O)c2ccc(F)cc2)cc1
1.6 (≈ 5.57 µM) | COc1ccc(CC(C)Nc2cccc(SC)c2)cc1 (centres undefined)
51.8 (≈ 143 µM) | CCOC(=O)c1ccc(NC(=O)CN2C(=O)CN(C(C)=O)C2=S)cc1
2.5 (≈ 6.84 µM) | Cc1ccc(C)c(NC(=O)CN2C(=O)NC(CCc3ccccc3)C2=O)c1 (centres undefined)
> 55.6 | O=C(O)/C=C/C(=O)Nc1ccc(Oc2ncnc3cc(Cl)ccc23)nc1
> 41.2 | CC(=O)Nc1cccc(NC(=O)c2csc(C)c2)c1
3.2 (≈ 12.1 µM) | Cc1ccc(NC(=O)Cc2c[nH]c3ccccc23)cc1
1.6 (≈ 5.05 µM) | CC(=O)c1cccc(NC(=O)NCCc2ccc(Cl)cc2)c1

solubility kinetic [µg/mL] | SMILES
> 42 | COc1ccc(C23NCCN2C(=O)c2ccccc23)cc1 (centres undefined)
1.6 (≈ 4.99 µM) | CCOc1ccc(CNC(=S)Nc2ccccc2)cc1Cl
> 48.4 | O=C(COC(=O)c1cccnc1Cl)NCCC1=CCCCC1
21.7 (≈ 78 µM) | CN1C(=O)C2(OCC(C)([N+](=O)[O-])CO2)c2ccccc21 (centres undefined)
30 (≈ 123 µM) | S=C(NCc1ccccc1)Nc1ccncc1
1.7 (≈ 5.14 µM) | Cc1ccc(NC(=O)CCNC(=O)c2ccc(Cl)cc2)cc1C
41.5 (≈ 147 µM) | Cc1cccc(NC(=O)CCNC(=O)c2ccccc2)c1
20.3 (≈ 62 µM) | CCCOc1ccc(CC(=O)NCCc2ccccc2)cc1OC
> 49.1 | Cc1ccc(OCC(=O)NCCNC(=O)c2ccncc2)cc1C
20.8 (≈ 61.8 µM) | O=C(COC(=O)c1cc(=O)[nH]c2ccccc12)NCc1ccccc1
47.5 (≈ 149 µM) | COC(=O)c1cc(CNC(=O)Cc2ccsc2)ccc1OC
> 33.3 | NCCCNC(=O)c1ccc(/C=N/O)nc1
> 34.5 | O=C1CCc2ccc(NC(=O)C3CC3)cc2N1
7.5 (≈ 15.4 µM) | CC(C)N(Cc1ccccc1)C(=O)COC(=O)c1cc(S(=O)(=O)N(C)C)ccc1N1CCCC1
7.2 (≈ 22.3 µM) | CCOC(=O)c1cnc2c(OC)cccc2c1Oc1ccccc1
12.5 (≈ 31 µM) | Cc1cc(C)c(S(=O)(=O)NC2CC(C)(C)NC(C)(C)C2)cc1Br
> 43.6 | CCCCNC(=S)Nc1ccc(SC(F)F)cc1
41.3 (≈ 146 µM) | O=c1cc(CSCc2ccc(Cl)cc2)[nH]c(=O)[nH]1
23.3 (≈ 69.6 µM) | Cc1scc(C(=O)N2CCN(c3ccc(Cl)cc3)CC2)c1C
11.3 (≈ 43.2 µM) | O=C(NOCc1ccccc1)c1ccc(Cl)cc1
> 30.3 | Cc1c(/C=N/O)c2ccccn2c1C=O
> 41.5 | O=C(CCCCl)N1CCc2[nH]c3ccccc3c2C1
> 37.4 | COc1ccccc1/C=C/CN1CCSCC1
6.5 (≈ 14.1 µM) | O=C(c1cncc(Br)c1)N1CCN(S(=O)(=O)c2ccc3ccccc3c2)CC1

solubility kinetic [µg/mL] | SMILES
> 49.6 | Cc1ccc(CN2CCN(Cc3ccc(O)cc3)CC2CCO)o1 (centres undefined)
> 44.9 | CCC/C(O)=C1\C(=O)CC(C)(C)CC1=NCc1ccccc1
4.5 (≈ 13.8 µM) | CCOC(=O)C1CCN(S(=O)(=O)c2ccc(C)c(C)c2)CC1
4.6 (≈ 12.4 µM) | O=C(/C=C/c1cccc(Br)c1)N1CCN(c2ccccn2)CC1
< 0.4 | COc1cc(NC(=O)c2ccccc2)ccc1NC(=O)Cc1ccccc1
> 44.9 | CC(C)(C)n1cnc2cc(NC(=O)c3cccs3)ccc21
7.5 (≈ 25.7 µM) | CC(O)c1cccc(N=Cc2ccc3ccccc3c2O)c1 (centres undefined)
< 0.6 | CCNC(=O)c1ccc(C23CC4CC(CC(C4)C2)C3)o1
> 40.2 | O=C(CN1C(=O)CNC1=O)Nc1ccc(Cl)cc1
< 0.7 | CCOC(=O)c1ccc(NC(=O)c2cc(F)c(F)cc2Cl)cc1
11.6 (≈ 42.7 µM) | CC(C)Cc1ccc(/C=C/C(=O)N2CCCCC2)cc1
3.3 (≈ 12.1 µM) | O=C(Nc1cccc(Cl)c1)C1CC1c1ccccc1 (centres undefined)
> 46 | Cn1c(SCC(=O)NC2CCCC2)nnc1-c1ccco1
> 47.7 | CN1CCC(OC(c2ccccc2)c2ccccc2)CC1.Cl
6.3 (≈ 15.8 µM) | Cc1ccc(-c2ccc(C(=O)NCCCNC(=O)c3cnccn3)o2)cc1Cl
0.2 (≈ 0.617 µM) | O=[N+]([O-])c1ccc2ncnc(Nc3ccc4c(c3)OCCO4)c2c1
1.4 (≈ 3.95 µM) | COc1ccc(/C=C2\N=C(SC)N(c3ccccc3OC)C2=O)cc1
15.4 (≈ 42.1 µM) | CN(CC(=O)Nc1cccc(F)c1)CC(=O)Nc1cccc2ccccc12
0.7 (≈ 2.69 µM) | Cc1cc(NC(=O)COc2ccc(C)c(C)c2)no1
> 35.3 | CC1CC(=O)N(C)c2cc([N+](=O)[O-])ccc2N1 (centres undefined)
> 58 | COCCCN(CC(=O)Nc1ccc(F)cc1)S(=O)(=O)c1cccs1

SMILES | solubility kinetic [µg/mL]
Nc1cc2nc3ccccc3nc2cc1N | 5.1 (≈ 24.3 µM)
CCN(Cc1ccncc1)Cc1ccc(OC)cc1OC.O=C(O)C(=O)O | 43.5
